In general, pIC50 refers to −log10 of the IC50, conventionally taken in molar units. Broadly, the half-life is the time in which the quantity being followed falls by half. Low readings indicate rapid decline, high ones slow decline.

This passage reports IC50 and half-life results from ChEMBL document CHEMBL5154702, “Synthesis and biological evaluation of aminobenzamides containing purine moiety as class I histone deacetylases inhibitors” (Bioorg Med Chem, 2022).

The subject of one data set is HCT-116. As to the kind of experiment: Antiproliferative activity against human HCT-116 cells measured after 48 hrs by MTT assay. Type of data set: functional, cell-based. Conditions: HCT-116, 48 h.
A further data set concerns MDA-MB-231. As to the kind of experiment: Antiproliferative activity against human MDA-MB-231 cells measured after 48 hrs by MTT assay. The conditions noted are these: MDA-MB-231, 48 h. In kind it is functional, cell-based. A general note: Tetrazolium dyes change colour on reduction, which living cells bring about.
The next data set has as its system SGC-7901. As to the kind of experiment: Antiproliferative activity against human SGC-7901 cells measured after 48 hrs by MTT assay. In kind it is functional, cell-based. The conditions noted are these: SGC-7901, 48 h.
The next data set in a line: in vitro. The conditions noted are these: dog, liver microsomes. (In general: Microsomes from liver hold many membrane-bound enzymes, among them those of drug oxidation.)

The structures appear in SMILES notation. pIC50: −log10 of the molar value.

Take `O=C(CCCCCCC(=O)Nc1ccccc1)NO` [VORINOSTAT]: the pIC50 in the data set on HCT-116 is 5.81; in the data set on MDA-MB-231, 5.81; in the data set with SGC-7901, 5.67. In “in vitro”, this compound registered a half-life of 30 min.
